From patent publication US12458614B2, “Therapeutic agents for improved mobility and cognitive function and for treating neurodegenerative diseases and lysosomal storage disorders” (priority 2017, dated 2025)

Experiments:
[1] = system: patient with Spinocerebellar Ataxia (SCA) 1; experiment: Case study, Spinocerebellar Ataxia (SCA) 1; type: in vivo, human
[2] = system: Aspartylglucosaminuria patient fibroblasts; experiment: Lysosomal volume via LysoTracker; type: cell-based, human; details: 1 mM, 6 days
[3] = system: patients with ataxia telangiectasia; experiment: Case studies, ataxia telangiectasia (SARA, SCAFI, video-oculography); type: in vivo, human
Text: For example, to evaluate overall neurological status, mDRS, a four-domain scale (ambulation, manipulation, language and swallowing), may be applied. Cerebellar function may be evaluated using SARA, an eight-item clinical rating scale (gait, stance, sitting, speech, fine motor function and taxis; range 0-40, where 0 is the best neurological status and 40 the worst), and SCAFI, comprising the 8-m-Walking-Time (8MW; performed by having patients walking twice as quickly as possible from one line to another excluding turning), 9-Hole-Peg-Test (9HPT) and the number of “PATA” repetitions over 10 s. Subjective impairment and quality of life may be evaluated using the EQ-5D-5L questionnaire and VAS. To assess ocular motor function, 3-dimensional videooculography (EyeSeeCam) may be used to measure the peak velocity of saccades, gain of smooth pursuit, peak slow phase velocity of gaze-evoked nystagmus (gaze-holding function), peak slow phase velocity of optokinetic nystagmus, and gain of horizontal vestibulo-ocular reflex. To evaluate the cognitive state, WAIS-R or WISC-IV, and MoCA, assessing different cognitive domains, including attention and concentration, executive functions, memory, language, visuoconstructional skills, conceptual thinking, calculations, and orientation with a maximum of 30 points and a cut-off score of 26, may be used. The skilled person will know how to perform these and other such tests.
After one month of treatment, the patient was re-evaluated. […] Examination indicated a Scale for Assessment and Rating of Ataxia (SARA) score of 15.5/40. Results from the patient's Spinocerebellar Ataxia Functional Index (SCAFI) analysis were: • Mean 8-meters Walking Test (8MW): 18.5 s • MW 9-Hole Pegboard Test Dominant (9HPTD) (right): 77.9 s • MW 9-Hole Pegboard Test Non-Dominant (9HPTND): 101.3 s • MW PATA Word Test: 13 • Visual analog scale (as evaluated by the patient): 85
After one month of treatment, the patient was re-evaluated. […] Examination indicated a Scale for Assessment and Rating of Ataxia (SARA) score of 23.5/40.
After slightly over 7 months of treatment, the patient was re-evaluated. […] Examination indicated a Scale for Assessment and Rating of Ataxia (SARA) score of 21.5/40.
After slightly over 1 month of treatment, the patient was re-evaluated. […] The patient also reported that drinking was easier and no longer needed a straw. […] Examination indicated a Scale for Assessment and Rating of Ataxia (SARA) score of 18.5/40.
After about 1 month of treatment, the patient was re-evaluated. […] On medication, they were able to walk with only holding the caregiver's hand.
The patient was evaluated after one month and six months of treatment, respectively. […] The patient, however, was suffering from anxiety, which would be expected to negatively influence the response.

[4] = system: patient with corticobasal syndrome; experiment: Case study, corticobasal syndrome; type: in vivo, human
Description: Gait analysis was performed before treatment commenced.

patients with vertigo = details: clinical results reported by various authors; cited from earlier work
[5] = system: patient with GM1 Gangliosidosis; experiment: Case study, GM1 Gangliosidosis; type: in vivo, human; details: after one month, 1.5 g then 3 g per day
Text: For example, to evaluate overall neurological status, mDRS, a four-domain scale (ambulation, manipulation, language and swallowing), may be applied. Cerebellar function may be evaluated using SARA, an eight-item clinical rating scale (gait, stance, sitting, speech, fine motor function and taxis; range 0-40, where 0 is the best neurological status and 40 the worst), and SCAFI, comprising the 8-m-Walking-Time (8MW; performed by having patients walking twice as quickly as possible from one line to another excluding turning), 9-Hole-Peg-Test (9HPT) and the number of “PATA” repetitions over 10 s. Subjective impairment and quality of life may be evaluated using the EQ-5D-5L questionnaire and VAS. To assess ocular motor function, 3-dimensional videooculography (EyeSeeCam) may be used to measure the peak velocity of saccades, gain of smooth pursuit, peak slow phase velocity of gaze-evoked nystagmus (gaze-holding function), peak slow phase velocity of optokinetic nystagmus, and gain of horizontal vestibulo-ocular reflex. To evaluate the cognitive state, WAIS-R or WISC-IV, and MoCA, assessing different cognitive domains, including attention and concentration, executive functions, memory, language, visuoconstructional skills, conceptual thinking, calculations, and orientation with a maximum of 30 points and a cut-off score of 26, may be used. […]

wild-type (Npc1+/+) mice = experiment: Gait analysis (CatWalk); type: in vivo, mouse; details: eight weeks of age
Description: (§1) Separate groups of Npc1^−/− and Npc1^+/+ mice were left untreated, as controls. Gait analysis was performed on mice at eight weeks of age using a CatWalk® 15.0 system according to manufacturer's instructions (Noldus, Nottingham, UK). Five runs were recorded per animal. CatWalk® parameters measured were: • 1. Stand Mean: average duration (s) of paws in contact with glass plate; • 2. Step Cycle: duration (s) between two consecutive contacts of the same paw; • 3. Duty Cycle: percentage of time paws in contact with plate compared with time to complete a step cycle; • 4. Step Sequence (AB): percentage of time spent walking in LF-RH-RF-LH alternating pattern (LF: left front; RH: right hind; RF: right front; LH left hind); • 5. Cadence: step per seconds in a trial; • 6. Diagonal Support: percentage of time with simultaneous contact of diagonal paws with the glass plate (RF&LH or RH&LF). Motor Function Analysis

Npc1−/− mice = experiment: Gait analysis (CatWalk); type: in vivo, mouse; details: eight weeks of age
Description: as §1

[6] = system: fibroblasts from NPC patients; experiment: Relative lysosomal volume via LysoTracker; type: cell-based, human; details: 1 mM
Description: A fibroblast cell line from an NPC patient was treated for 3 days with N-acetyl-DL-leucine (1 mM) and relative lysosomal volume was quantified via LysoTracker, a fluorescent dye that accumulates in acidic organelles. Increased LysoTracker fluorescence is indicative of an increase in lysosomal size and/or number, and is a hallmark of NPC cells.

[7] = system: patients with multisystemic atrophy cerebellar type (MSA-C); experiment: Case studies, multisystemic atrophy cerebellar type; type: in vivo, human
[8] = A-T Patient 3, after slightly over 7 months
[9] = A-T Patient 4, after slightly over 1 month
[10] = A-T Patient 5, after about 1 month
[11] = A-T Patient 5, after almost 7 months

With `CC(=O)NC(CC(C)C)C(=O)O` (racemic) [acetyl-DL-leucine] the Symptoms ([1]; three weeks on medication, 5 g/day) was “all symptoms significantly improved”, the “Intensity of signs and symptoms after stop” value ([1]; two weeks after medication was stopped) was “the same as before therapy” and the “LysoTracker fluorescence vs untreated disease fibroblasts” value [2] was “trend in reducing LysoTracker fluorescence toward control level”. The “Video-oculography (summary)” value ([3]; A-T Patient 1, after one month) was “significant improvement of fixation stability and decrease of intensity of downbeat-nystagmus”, the Caregiver report ([3]; A-T Patient 1, after one month, 5 g/day) was “improvement of speech and gait” and the “9-Hole Pegboard Test Dominant (9HPTD)” value ([3]; A-T Patient 2, after one month) was 300 s. For the same compound, the “Mean 8-meters Walking Test (8MW)” value ([3]; A-T Patient 2, after one month) was “not able to perform without support”, the “Video-oculography (summary)” value ([3]; A-T Patient 2, after one month) was “improvement of fixation stability and significant improvement of downbeat-nystagmus intensity” and the Caregiver report ([3]; A-T Patient 2, after one month, 5 g/day) was “improvement of fine motor function, hand tremor, and speech”. For the same compound, the “Mean 8-meters Walking Test (8MW)” value [3, 8] was “not able to perform”, the “Video-oculography (summary)” value [3, 8] was “significant improvement of fixation stability and decrease of intensity of gaze-holding nystagmus at all positions” and the “Caregiver and patient report” value ([3]; A-T Patient 3, after slightly over 7 months, 5 g/day) was “general improvement of well-being”. The “Mean 8-meters Walking Test (8MW)” value [3, 9] was “not able to perform”, the “Video-oculography (summary)” value [3, 9] was “general improvement of fixation stability and decrease of intensity of spontaneous and gaze-holding nystagmus at all positions” and the “Patient and family report” value ([3]; A-T Patient 4, after slightly over 1 month, 5 g/day) was “improvement in handwriting”. The Body weight gained [3, 10] was 1.5 kg, the “Mean 8-meters Walking Test (8MW)” value [3, 10] was “not able to walk without support” and the “Gait (reported by parent)” value ([3]; A-T Patient 5, after about 1 month, 5 g/day) was “significant improvement of stability of the gait”. The “Further body weight gained” value [3, 11] was 3 kg, the “Gait (reported by parent)” value [3, 11] was “significantly more stable gait” and the Clinical re-evaluation ([3]; A-T Patient 5, after slightly over a year) was “improved social interaction, activity, and agility”. For the same compound, the Adverse observation ([3]; A-T Patient 5, after slightly over a year, suspected infantile migraine) was “repeatedly occurring frontal localized pain with vomiting in the morning”, the Clinical evaluation ([3]; A-T Patient 6, after one month, 1.5 g/day then 3 g/day) was “increased fine motor skills with reduced hand tremor” and the Clinical evaluation ([3]; A-T Patient 6, after six months) was “stable general conditions, stable gait and stance, and improved handwriting”. The Frequency of falls ([4]; after 20 days) was “significant reduction in the frequency of falls”, the “Gait analysis parameters (summary)” value ([4]; after 20 days) was “objective improvement in gait analysis parameters” and the Dizziness symptoms ([4]; after 20 days, 3 g then 5 g per day) was “improvement of dizziness symptoms”. For the same compound, the Dizziness after suspension ([4]; two days after suspension of treatment) was “increase of dizziness symptoms”, the “improvement in vertigo symptomology (share of cases)” value (patients with vertigo) was “more than 95%” and the Clinical re-examination [5] was “stable general condition, increased gait (more fluent), and stable stance in natural position”. The “Gait properties vs untreated littermates” value (wild-type (Npc1+/+) mice) was “no significant difference in gait properties”, the “Gait properties vs untreated littermates” value (Npc1−/− mice) was “significantly improved gait” and the “LysoTracker fluorescence (lysosomal volume)” value ([6]; NPC patient of mild clinical severity) was “significant decrease in LysoTracker fluorescence”. The “LysoTracker fluorescence (lysosomal volume)” value ([6]; additional NPC patients of variable clinical severity, 72 hours) was “findings were replicated”, the Speech ([7]; MSA-C Patient 1, after one week, 5 g per day) was “significant improvement in speech” and the Dizziness ([7]; MSA-C Patient 2, after 3 weeks) was “substantially improved”. For the same compound, the Falls ([7]; MSA-C Patient 2, after 3 weeks) was “falls completely stopped”, the Gait ([7]; MSA-C Patient 2, after 3 weeks) was “significant improvement of gait” and the “Symptoms after stopping medication” value ([7]; MSA-C Patient 2, one week after first stop) was “deterioration of gait and dizziness”. The “Symptoms after stopping medication” value ([7]; MSA-C Patient 2, two days after second stop) was “progressive deterioration of gait and dizziness”, the “Symptomatology after return to treatment” value ([7]; MSA-C Patient 3) was “symptomatology re-improved” and the “Gait analysis (summary)” value ([7]; MSA-C Patient 3, after one month) was “improvement of gait speed, and reductions of track width and gait fluctuations”. The Symptoms after re-suspension ([7]; MSA-C Patient 3, three weeks after treatment was again suspended) was “deterioration of symptoms, especially dizziness” and the “Symptoms after stopping medication” value ([7]; MSA-C Patient 3, two to three weeks after stopping) was “progressive deterioration of gait and dizziness”.
